Like-named read-outs stand apart in the source and are kept apart here. One block for each compound: values may come before it.
What was measured:
dopamine D2 receptor = target: T1, dopamine D2 receptor (Rattus norvegicus, UniProt P61169); assay: D2 dopaminergic binding assay ([3H]spiperone, rat striatum); conditions: read-out: Ki±SEM, D2
T1 construct: Rat striatum was homogenized in 20 volumes of ice-cold 50 mM Tris-HCl buffer; from tissue; host or cells: rat striatum
Procedure: (§1) All the new compounds were dissolved in 5% DMSO. The following specific radioligands and tissue sources were used: (a) serotonin 5-HT1A receptor, [^3H]8-OH-DPAT, rat brain cortex; (b) serotonin 5-HT2A receptor, [^3H]ketanserin, rat brain cortex; (c) serotonin 5-HT2C receptor, [^3H]mesulergine, rat brain cortex; (d) dopamine D2 receptor, [^3H]spiperone, rat striatum; (e) dopamine D3 receptor, [^3H]spiperone, rat olfactory tubercle (f) histamine H1 receptor, [^3H] pyrilamine, guinea pig cerebellum.
(§2) Total binding was determined in the absence of no-specific binding and compounds. Specific binding was determined in the presence of compounds. Non-specific binding was determined as the difference between total and specific binding.
(§3) Percentage of inhibition (%) = (total binding − specific binding)×100%/(total binding − nonspecific binding).
(§4) Ki values were calculated based on the Cheng and Prussoff equation: Ki = IC50/(1+C/Kd) where C represents the concentration of the hot ligand used and Kd its receptor dissociation constant were calculated for each labeled ligand. Mean Ki values and SEM were reported for at least three independent experiments.
Rat striatum was homogenized in 20 volumes of ice-cold 50 mM Tris-HCl buffer (pH 7.7) using an ULTRA TURAX homogeniser, and centrifuged twice for 10 min at 48,000 g with resuspension of the pellet in fresh buffer. The final pellet was resuspended in 50 mM ice-cold Tris-HCl containing 120 mM NaCl, 5 mM KCl, 2 mM CaCl2, 1 mM MgCl2, 0.1% ascorbic acid and 5 µM pargyline.
Total binding each assay tube was added 900 µL of the tissue suspension, 50 µL of 0.5 nM [^3H]spiperone (16.2 Ci/mmol; Perkin Elmer Life Sciences, Boston, MA, USA), 50 µL Tris-HCl buffer containing 120 mM NaCl, 5 mM KCl, 2 mM CaCl2, 1 mM MgCl2, 0.1% ascorbic acid and 5 µM pargyline.
Non-specific binding each assay tube was added 900 µL of the tissue suspension, 50 µL of 0.5 nM [^3H]spiperone, 50 µL of 10 µM (+)-butaclamol.
Specific binding each assay tube was added 900 µL of the tissue suspension, 50 µL of 0.5 nM [^3H]spiperone, 50 µL of new compounds or reference drug.
(§5) The incubation was followed by a rapid vacuum filtration through Whatman GF/B glass filters, and the filtrates were washed twice with 5 mL cold buffer and transferred to scintillation vials. Scintillation fluid (3.0 mL) was added and the radioactivity bound was measured using a Beckman LS 6500 liquid scintillation counter.

[1] = target: T2, serotonin 5-HT1A receptor (Rattus norvegicus, UniProt P19327); assay: 5-HT1A binding assay ([3H]8-OH-DPAT, rat brain cortex); conditions: read-out: Ki±SEM, 5HT1A
T2 construct: Rat cerebral cortex was homogenized in 20 volumes of ice-cold Tris-HCl buffer; from tissue; host or cells: rat brain (cerebral) cortex
T2 sequence (P19327 1-422): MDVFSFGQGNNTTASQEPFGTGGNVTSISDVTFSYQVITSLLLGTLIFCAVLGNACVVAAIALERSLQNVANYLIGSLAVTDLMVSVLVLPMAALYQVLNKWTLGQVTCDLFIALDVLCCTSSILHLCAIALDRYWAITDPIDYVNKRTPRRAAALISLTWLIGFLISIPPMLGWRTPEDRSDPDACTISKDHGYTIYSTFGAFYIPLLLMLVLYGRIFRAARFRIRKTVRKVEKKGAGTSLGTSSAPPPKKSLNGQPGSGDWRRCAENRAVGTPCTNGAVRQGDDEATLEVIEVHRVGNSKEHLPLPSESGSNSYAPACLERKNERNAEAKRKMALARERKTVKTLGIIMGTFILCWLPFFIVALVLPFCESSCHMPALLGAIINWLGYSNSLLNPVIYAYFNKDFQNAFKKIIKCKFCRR
Procedure: as §1, §2, §3, §4
Rat cerebral cortex was homogenized in 20 volumes of ice-cold Tris-HCl buffer (50 mM, pH 7.7) using an ULTRA TURAX homogeniser, and was then centrifuged at 32000 g for 10 min. […] The final pellet was resuspended in Tris-HCl buffer containing 10 µM Pargyline, 4 mM CaCl2 and 0.1% ascorbic acid.
Total binding each assay tube was added 900 µL of the tissue suspension, 50 µL of 0.5 nM [^3H]8-OH-DPAT (187.4 Ci/mmol, Perkin Elmer Life Sciences, Boston, MA, USA), 50 µL Tris-HCl buffer containing 10 µM Pargyline, 4 mM CaCl2 and 0.1% ascorbic acid.
Non-specific binding each assay tube was added 900 µL of the tissue suspension, 50 µL of 0.5 nM [^3H]8-OH-DPAT, 50 µL of 10 µM serotonin.
Specific binding each assay tube was added 900 µL of the tissue suspension, 50 µL of 0.5 nM [^3H]8-OH-DPAT, 50 µL of new compounds or reference drug.
as §5, with “5mL” for “5 mL”

histamine H1 receptor = target: T3, histamine H1 receptor (Cavia porcellus, UniProt P31389); assay: Histamine H1 binding assay ([3H]pyrilamine, guinea pig cerebellum); conditions: read-out: Ki±SEM, H1
T3 construct: Guinea pig cerebellum was homogenized in 20 volumes of ice-cold 50 mM phosphate buffer; from tissue; host or cells: guinea pig cerebellum
Procedure: as §1, §2, §3, §4, §5

dopamine D3 receptor = target: T4, dopamine D3 receptor (Rattus norvegicus, UniProt P19020); assay: D3 dopaminergic binding assay ([3H]spiperone, rat olfactory tubercle); conditions: mean of three experiments, read-out: Ki±SEM, D3
T4 construct: Rat olfactory tubercle was homogenized in 20 volumes of ice-cold 50 mM Hepes Na; from tissue; host or cells: rat olfactory tubercle
Procedure: as §1, §2, §3, §4, §5

[2] = target: T5, serotonin 5-HT2A receptor (Rattus norvegicus, UniProt P14842); assay: 5-HT2A binding assay ([3H]ketanserin, rat brain cortex); conditions: read-out: Ki±SEM, 5HT2A
T5 construct: Rat cerebral cortex was homogenized in 20 volumes of ice-cold Tris-HCl buffer; from tissue; host or cells: rat brain (cerebral) cortex
Procedure: as §1, §2, §3, §4
Rat cerebral cortex was homogenized in 20 volumes of ice-cold Tris-HCl buffer (50 mM, pH 7.7) using an ULTRA TURAX homogeniser, and centrifuged at 32000 g for 20 min. The resulting pellet was resuspended in the same quantity of the buffer centrifuged for 20 min. The final pellet was resuspended in 50 volumes of the Tris-HCl buffer.
Total binding each assay tube was added 900 µL of the tissue suspension, 50 µL of 0.6 nM [^3H]ketanserin (60.0 Ci/mmol, Perkin Elmer Life Sciences, Boston, MA, USA), 50 µL Tris-HCl buffer.
Non-specific binding each assay tube was added 900 µL of the tissue suspension, 50 µL of 0.6 nM [^3H]ketanserin, 50 µL of 10 µM methisergide.
Specific binding each assay tube was added 900 µL of the tissue suspension, 50 µL of 0.6 nM [^3H]ketanserin, […] of new compounds or reference drug.
as §5

[3] = target: T6, serotonin 5-HT2C receptor (Rattus norvegicus, UniProt P08909); assay: 5-HT2C binding assay ([3H]mesulergine, rat brain cortex); conditions: mean of three experiments, read-out: Ki±SEM, 5HT2C
T6 construct: Rat cerebral cortex was homogenized in 20 volumes of ice-cold Tris-HCl buffer; from tissue; host or cells: rat brain (cerebral) cortex
T6 sequence (P08909 33-460): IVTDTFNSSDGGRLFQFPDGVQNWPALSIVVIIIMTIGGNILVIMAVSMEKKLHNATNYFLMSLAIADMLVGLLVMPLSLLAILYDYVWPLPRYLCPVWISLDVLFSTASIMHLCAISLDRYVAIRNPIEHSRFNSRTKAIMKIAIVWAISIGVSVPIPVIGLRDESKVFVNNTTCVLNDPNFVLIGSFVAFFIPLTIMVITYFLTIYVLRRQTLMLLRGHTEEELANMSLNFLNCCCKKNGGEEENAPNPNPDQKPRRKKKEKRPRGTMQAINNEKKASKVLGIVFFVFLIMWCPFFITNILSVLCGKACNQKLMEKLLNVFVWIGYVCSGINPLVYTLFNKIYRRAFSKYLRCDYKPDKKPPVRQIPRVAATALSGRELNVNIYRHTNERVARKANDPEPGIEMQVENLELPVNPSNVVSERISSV
Procedure: as §1
Total binding was determined in the absence of no-specific binding and compounds. Specific binding was determined in the presence of compounds. Non-specific binding was determined as the difference between total and specific binding. […]
Ki values were calculated based on the Cheng and Prussoff equation: Ki = IC50/(1+C/Kd) where C represents the concentration of the hot ligand used and Kd its receptor dissociation constant were calculated for each labeled ligand. […]
The resulting pellet was resuspended in the same quantity of the buffer centrifuged for 20 min. […]
as §5

in vivo = conditions: Kun Ming (KM), mouse, po
[4] = system: MK-801-induced hyperactivity in mice; assay: MK-801-induced hyperactivity; conditions: Mus musculus, po, read-out: MK-801-induced hyperactivity ED50 (B)
[5] = system: apomorphine-induced climbing behavior in mice; assay: Apomorphine-induced climbing; type: in vivo; conditions: Mus musculus, po, read-out: Apomorphine-induced climbing ED50 (A)
Procedure: . […] . Animals were then challenged at 30 minutes post-injection with 1.0 mg/kg of the apomorphine in 0.9% NaCl+0.1% ascorbic acid, placed in cylindrical wire cages (12 cm in diameter, 14 cm in height), and observed for climbing behavior at 10, 20 and 30 min post dose. The climbing behaviour was scored as follows: 3–4 paws on the cage floor = 0 score; 2 and 3 paws on the cage = 1 score; 4 paws on the cage = 2 score.

[6] = mice, 95% confidence limits in parentheses

T3 sequence (P31389 whole entry): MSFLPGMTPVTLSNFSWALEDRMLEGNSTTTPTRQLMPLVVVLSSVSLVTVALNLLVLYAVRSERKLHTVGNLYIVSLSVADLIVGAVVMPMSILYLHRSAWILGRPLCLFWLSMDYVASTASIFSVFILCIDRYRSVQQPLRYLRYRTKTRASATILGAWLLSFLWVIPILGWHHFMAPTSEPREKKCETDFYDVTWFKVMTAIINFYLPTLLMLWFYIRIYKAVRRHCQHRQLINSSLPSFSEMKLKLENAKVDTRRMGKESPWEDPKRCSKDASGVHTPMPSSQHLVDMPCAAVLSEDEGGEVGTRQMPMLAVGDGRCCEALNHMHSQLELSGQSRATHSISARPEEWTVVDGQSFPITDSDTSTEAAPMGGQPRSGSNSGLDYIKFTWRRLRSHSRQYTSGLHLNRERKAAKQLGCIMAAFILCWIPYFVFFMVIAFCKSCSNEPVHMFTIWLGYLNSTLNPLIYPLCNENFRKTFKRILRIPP
T1 sequence (P61169 whole entry): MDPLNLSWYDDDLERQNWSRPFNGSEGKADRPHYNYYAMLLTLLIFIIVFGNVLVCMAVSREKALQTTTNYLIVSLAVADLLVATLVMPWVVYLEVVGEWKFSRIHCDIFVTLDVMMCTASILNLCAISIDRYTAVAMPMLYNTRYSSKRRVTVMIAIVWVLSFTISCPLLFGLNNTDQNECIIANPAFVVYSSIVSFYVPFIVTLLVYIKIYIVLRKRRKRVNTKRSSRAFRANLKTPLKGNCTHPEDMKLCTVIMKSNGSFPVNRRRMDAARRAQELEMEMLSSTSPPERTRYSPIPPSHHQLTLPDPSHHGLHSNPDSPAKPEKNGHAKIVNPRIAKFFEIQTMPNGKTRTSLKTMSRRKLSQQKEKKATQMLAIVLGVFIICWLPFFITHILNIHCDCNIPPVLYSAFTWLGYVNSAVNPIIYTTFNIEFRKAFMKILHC
T4 sequence (P19020 whole entry): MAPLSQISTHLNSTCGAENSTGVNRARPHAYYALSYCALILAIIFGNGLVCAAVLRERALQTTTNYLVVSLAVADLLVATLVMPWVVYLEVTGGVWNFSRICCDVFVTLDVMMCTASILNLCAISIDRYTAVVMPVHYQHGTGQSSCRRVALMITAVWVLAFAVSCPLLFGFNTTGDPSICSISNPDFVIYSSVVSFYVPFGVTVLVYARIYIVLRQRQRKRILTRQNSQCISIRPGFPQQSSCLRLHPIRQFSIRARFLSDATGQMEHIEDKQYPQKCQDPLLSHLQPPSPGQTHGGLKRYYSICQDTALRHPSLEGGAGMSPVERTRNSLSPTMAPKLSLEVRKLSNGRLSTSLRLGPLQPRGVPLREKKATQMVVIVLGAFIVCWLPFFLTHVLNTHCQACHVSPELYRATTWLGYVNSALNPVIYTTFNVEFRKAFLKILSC
T5 sequence (P14842 whole entry): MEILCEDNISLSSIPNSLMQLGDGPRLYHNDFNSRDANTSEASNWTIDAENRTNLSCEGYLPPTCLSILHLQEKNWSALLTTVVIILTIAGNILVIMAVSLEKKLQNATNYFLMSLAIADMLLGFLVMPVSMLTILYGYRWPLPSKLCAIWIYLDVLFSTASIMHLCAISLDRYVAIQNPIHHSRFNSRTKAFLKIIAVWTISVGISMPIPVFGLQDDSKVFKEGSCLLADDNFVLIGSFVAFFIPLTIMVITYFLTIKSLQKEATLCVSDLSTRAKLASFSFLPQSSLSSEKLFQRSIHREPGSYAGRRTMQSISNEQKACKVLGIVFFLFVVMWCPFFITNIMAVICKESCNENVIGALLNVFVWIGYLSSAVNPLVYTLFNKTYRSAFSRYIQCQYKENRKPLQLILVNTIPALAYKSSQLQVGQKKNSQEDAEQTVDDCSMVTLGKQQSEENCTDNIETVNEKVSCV

SMILES: COc1ccc(-c2nnc(SCCCN3CCC(c4noc5cc(F)ccc45)CC3)o2)cc1 [Compound 14, 2-(3-(4-(6-fluorobenzo[d]isoxazol-3-yl)piperidin-1-yl)propylthio)-5-(4-methoxyphenyl)-1,3,4-oxadiazole]
Ki (dopamine D2 receptor): 14.8 ± 1.8 nM
Ki [1]: 6.8 ± 0.7 nM
Ki (histamine H1 receptor): 13.2 ± 3.4 nM
Ki (dopamine D3 receptor): 219 ± 35.2 nM
Ki [2]: 0.22 ± 0.02 nM

SMILES: CN1CCN(C2=Nc3cc(Cl)ccc3Nc3ccccc32)CC1 [clozapine]
ED50 (in vivo): 92.7 mg/kg
ED50 [4]: 5.06 mg/kg
ED50 [5, 6]: 7.99 mg/kg

SMILES: Cc1nc2n(c(=O)c1CCN1CCC(c3noc4cc(F)ccc34)CC1)CCCC2 [risperidone]
ED50 [5]: 0.02 mg/kg

Second part, led by results:

Ki (dopamine D2 receptor; [3H]spiperone, rat striatum, mean of three experiments, >10000 marked b: Ki not calculated, inhibition at 10 µM too low): 18.3 ± 1.6 nM
Ki ([1]; [3H]8-OH-DPAT, rat brain cortex, mean of three experiments, >10000 marked b: Ki not calculated, inhibition at 10 µM too low): 10.5 ± 1.2 nM
Ki (histamine H1 receptor; [3H]pyrilamine, guinea pig cerebellum, mean of three experiments, >10000 marked b: Ki not calculated, inhibition at 10 µM too low): 18.9 ± 2.1 nM
Ki (dopamine D3 receptor): 15.5 ± 1.9 nM
Ki ([2]; [3H]ketanserin, rat brain cortex, mean of three experiments, >10000 marked b: Ki not calculated, inhibition at 10 µM too low): 6.6 ± 0.8 nM
Ki [3]: 502 ± 56.2 nM
SMILES: Fc1ccc2c(C3CCN(CCCSc4nnc(-c5ccc(Cl)cc5)o4)CC3)noc2c1 [Compound 16, 2-(3-(4-(6-fluorobenzo[d]isoxazol-3-yl)piperidin-1-yl)propylthio)-5-(4-chlorophenyl)-1,3,4-oxadiazole]

ED50 (in vivo): 0.22 mg/kg
SMILES: O=C(CCCN1CCC(O)(c2ccc(Cl)cc2)CC1)c1ccc(F)cc1 [haloperidol]
ED50 [4]: 0.19 mg/kg
ED50 [5, 6]: 0.09 mg/kg

— publication PMC3340383, “Synthesis and Evaluation of a Series of 2-Substituted-5-Thiopropylpiperazine (Piperidine)-1,3,4-Oxadiazoles Derivatives as Atypical Antipsychotics” (PLoS ONE, 2012)
